This note sets out measurements from patent US20210024490A1, “METHOD FOR THE PREPARATION OF THE METABOLITES OF (4S)- AND (4R)-4-(4-CYANO-2-METHOXYPHENYL)-5-ETHOXY-2,8-DIMETHYL-1,4-DIHYDRO-1,6-NAPHTHYRIDINE-3-CARBOXAMIDE AND THE USE THEREOF” (Bayer Pharma Aktiengesellschaft, priority 2015, published 2021).

Data set [1] addresses T1, human mineralocorticoid receptor (MR) (Homo sapiens, UniProt P08235).
T1 construct: expressed in transfected cells; host or cells: CHO K1 (Chinese hamster ovary), stably transfected
T1 sequence (P08235 734-984 limits assumed): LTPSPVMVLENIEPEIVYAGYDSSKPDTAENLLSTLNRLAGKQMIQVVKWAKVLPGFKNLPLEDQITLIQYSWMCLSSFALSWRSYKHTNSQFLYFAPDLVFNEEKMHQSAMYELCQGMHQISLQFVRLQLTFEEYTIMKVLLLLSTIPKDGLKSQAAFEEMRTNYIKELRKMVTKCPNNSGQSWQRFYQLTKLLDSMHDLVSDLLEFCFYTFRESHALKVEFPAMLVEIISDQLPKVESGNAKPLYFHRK
As to the kind of experiment: Cellular in vitro assay to determine the inhibitory MR activity (GAL4-steroid hormone receptor chimera, luciferase reporter, CHO K1 cells). The data set is classed as cell-based. To be noted: antagonism of aldosterone-stimulated GAL4-MR chimera. An excerpt: B-1. Cellular In Vitro Assay to Determine the Inhibitory MR Activity and MR Selectivity Compared with Other Steroid Hormone Receptors
Antagonists of the human mineralocorticoid receptor (MR) are identified, and the efficacy of the compounds described herein is quantified with the aid of a recombinant cell line. The cell is originally derived from a hamster ovary epithelial cell (Chinese Hamster Ovary, CHO K1, ATCC: American Type Culture Collection, VA 20108, USA).
An established chimera system in which the ligand-binding domains of human steroid hormone receptors are fused to the DNA-binding domain of the yeast transcription factor GAL4 is used in this CHO K1 cell line. The GAL4-steroid hormone receptor chimeras produced in this way are cotransfected and stably expressed with a reporter construct in the CHO cells.
To generate the GAL4-steroid hormone receptor chimeras, the GAL4 DNA-binding domain (amino acids 1-147) from the vector pFC2dbd (from Stratagene) is cloned with the PCR-amplified ligand-binding domains of the mineralocorticoid receptor (MR, amino acids 734-985), of the glucocorticoid receptor (GR, amino acids 443-777), of the progesterone receptor (PR, amino acids 680-933) and of the androgen receptor (AR, amino acids 667-919) into the vector pIRES2 (from Clontech). […]
The MR cells are plated out in medium (Optimem, 2.5% FCS, 2 mM glutamine, 10 mM HEPES) in 96-well (or 384- or 1536-well) microliter plates the day before the assay, and are kept in a cell incubator (96% air humidity, 5% v/v CO2, 37° C.). […] After a further incubation time of 5 to 6 hours, the luciferase activity is measured with the aid of a video camera. The relative light units measured give a sigmoidal stimulation curve as a function of the substance concentration. The IC50 values (in mol) are calculated with the aid of the computer program GraphPad PRISM (Version 3.02).
(A reporter such as luciferase makes a cellular process visible.)

Details of data set [2]: species or system humans. The note with it: dog, rat, mouse, human, in vivo. The source says: For pharmacokinetic measurements, standards of very high quality had to be prepared in order to be able to carry out reliable quantification. From the structural elucidation of the metabolites (via MS of the serum of various animal species and humans) obtained after administration of (4 S)-4-(4-cyano-2-methoxyphenyl)-5-ethoxy-2,8-dimethyl-1,4-dihydro-1,6-naphthyridine-3-carboxamide of the formula 4S (I), the following 6 main metabolites were found (the absolute stereochemistry of the atropisomers can be assigned according to the Cahn-Ingold-Prelog convention and is specified in parentheses):
If the R enantiomer 4R (I) is used, […]

For orientation: pIC50 means the negative decadic logarithm of the IC50, by convention in mol/L. A high value points to a low IC50.

pIC50: −log10 of the molar value.

Consider `CCOc1ncc(C)c2nc(C)c(C(N)=O)c(-c3ccc(C#N)cc3OC)c12` (single isomer, unassigned) [M1a (S)], for which the pIC50 in data set [1] was 5.03.
Consider `CCOc1ncc(C)c2nc(C)c(C(N)=O)c(-c3ccc(C#N)cc3OC)c12` (single isomer, unassigned) [M1b (R)], for which, in data set [1], the pIC50 is below 5.00.
For `CCOc1ncc(C)c2c1[C@@H](c1ccc(C#N)cc1OC)C(C(N)=O)=C(C)N2` [4R (I), (4R)-4-(4-cyano-2-methoxyphenyl)-5-ethoxy-2,8-dimethyl-1,4-dihydro-1,6-naphthyridine-3-carboxamide], in data set [2], the main metabolites formed entry is “the metabolites of the b series are principally formed, i.e. M1b (R), M2b (R) and M3b (R)”.
In the case of `CCOc1ncc(C)c2c1[C@H](c1ccc(C#N)cc1OC)C(C(N)=O)=C(C)N2` [Compound of the formula (I), (4S)-4-(4-cyano-2-methoxyphenyl)-5-ethoxy-2,8-dimethyl-1,4-dihydro-1,6-naphthyridine-3-carboxamide], the pIC50 in data set [1] was 7.56. Further, the main metabolites formed entry in data set [2] was “metabolized mainly to M1a (S) and the subsequent metabolites M2a (S) and M3a (S)”.
